The record followed here is US20100048657A1, “CONTROL OF MALIGNANT CELLS PROLIFERATION THROUGH THE INHIBITION OF CASEIN KINASE 2” (CLEVELAND STATE UNIVERSITY, priority 2006, published 2010).

Assay [1] relates to MEG-01 cells. Put plainly: Thrombocytopoiesis / proplatelet formation by light, DAPI fluorescence and SEM microscopy. The conditions noted are these: for thrombocytopoiesis: MEG-01 cells. The class given is cell-based, human. As for the experimental part: For observing the cells with light microscopy and to be able to provide a matrix for them to adhere, Fibronectin (FN), was used at 5 μg/cm^2 and incubated at 37° C. for 1 h, as a coat for the culture dish (6 well plates usually), as recommended by the provider (BD Biosciences, Bedford, Mass., USA) (Jiang et al., 2002).
Cell pictures were routinely taken in the laboratory of using an Olympus CK40 microscope, and the NIH Image software. High quality pictures and live imaging were taken at Cleveland Clinic Foundation Imaging Core.
DAPI staining of cultured MEG-01 cells was done with fresh cells, for live imaging.
Different concentrations of inhibitors were used, and both floating as well as fibronectin bound cells were examined. Proplatelets producing cells were observed as early as from the second day (after 24 hours), but in the third and forth days proplatelets formation was enhanced. […] When such a cell was identified, efforts were taken to focus on it and pictures were taken every 10 seconds for one day.
Cell preparation and pictures were done at the Microscopy Core Facility Cleveland Clinic. Cells were grown for 4 days with DMAT 10 μM and then collected by differential centrifugation. Cells were fixed in glutaraldehyde buffer and then further processed at the Core. The clot was prepared with platelets collected from MEG-01 cultures treated with DMAT 10 μM. Human thrombin 0.5 U/ml for 15 minutes was used to activate them. Then the clot was fixed in suspension.
Referring to FIGS. 10-15, DAPI staining of live MEG-01 cells is illustrated. Apoptotic morphology of MEG-01 cells. In FIG. 10, proplatelets formation in suspension, result of DMAT treatment (10 μM) is shown. FIG. 11 depicts proplatelets formation on Fibronectin, result of DMAT treatment (10 μM). […] This image represents the DAPI staining of cells from FIG. 11. […] FIG. 14 also illustrates phase contrast micrograph of live MEG-01 cells untreated in the 3rd to the 4th day (DMSO), 20×. FIG. 15 illustrates phase contrast micrograph of live MEG-01 cells treated with DMAT 10 μM in the 3rd to the 4th day, 20×. To summarize, FIGS. 10-15 show chromatin condensation, blebbing, cytoplasmic and nuclear fragmentation, as well as polyploidy (increase in the size of the nucleus) of MEG-01 cells following DMAT treatment.

Assay [2] deals with platelets from MEG-01 cells. Description: Activation and function of platelets produced by treated MEG-01 cultures (flow cytometry, clot SEM). The assay is classed as cell-based, human. The conditions noted are these: for function of platelets obtained in culture: platelets released from treated MEG-01 cells. As for the experimental part:
Platelets were also separated from the megakaryocytic cells, by differential centrifugation (Zunino et al., 2001), considering the big size difference between these cells (1-5 μm for platelets and 35-150 μm for megakaryocytic cell line MEG-01) and analyzed separately. Suspension cells were centrifuged first at 100 g to 150 g for 15 minutes, and then the platelets-rich supernatant was kept and centrifuged again at 800 g for 15 minutes. The platelets pellet was resuspended in the appropriate buffer (Tyrode's buffer, pH 7.4), for analysis. For impeding artefactual aggregation of platelets in the control, EDTA and RGDS or RGD were added in the cell suspension from the beginning of the centrifugations. Therefore the control was the inactivated platelets. Special caution was used in order to avoid as much as possible artefactual activation of the control, therefore centrifugations were done at room temperature, no unnecessary washing, no vortexing, gentle removal of supernatants.
Monoclonal antibody PAC-1 recognizes an epitope on the glycoprotein αIIbβ3 of activated platelets. PAC-1 binds only to the activated platelets, and so is very specific. PAC-1 will not bind EDTA and RGD or RGDS treated platelets (Shattil et al., 1987; Shattil et al., 1985; Shattil and Leavitt, 2001).
10 mg/ml RGD or RGDS and 100 mM EDTA were used for negative control (inactivated) on resting platelets.
PAC-1-FITC was purchased from Becton Dickinson Immunocytometry Systems, San Jose, Calif., USA. 20 μl PAC-1-FITC were used for 5 μl fresh platelets suspension, in Tyrode's buffer with CaCl2, as recommended for whole blood by the provider. Different agonists were used, like 1 μg/ml TRAP, 100 nM PMA, as final concentrations (Chen et al., 2004). Activation time was 10-15 minutes.
BD Biosciences protocol for staining was used, with incubation for 30 minutes, in dark, at room temperature.
CD62P is a monoclonal antibody that recognizes an epitope on P-Selectin. P-Selectin is exposed as response to agonist and is a specific sign of platelet activation. 20 μl CD62P-FITC were used for 5 μl fresh platelets suspension, in Tyrode's buffer with CaCl2. Different agonists were used, like 1 μg/ml TRAP, 100 nM PMA or 20 μM ADP as final concentrations. Activation time was 10 minutes. The staining volume was chosen by titration, small volumes giving better staining. Incubation was done in dark at room temperature for 30 minutes, as recommended by BD Biosciences. These assays were done on fresh platelets.
Human fibrinogen was conjugated with Alexa Fluor 488 fluorochrome (F-13191, from Molecular Probes, OR, USA) following recommended Molecular Probes procedure, with the modification that instead the column step, a dialysis step was chosen, in order to obtain a better attachment of dye molecules to fibrinogen. Final concentration of fibrinogen conjugated Alexa Fluor 488 was determined spectrophotometrically. For platelet activation, different agonists were used, like 1 μg/ml TRAP, 100 nM PMA or 20 μM ADP as final concentrations. Activation time was 10-15 minutes. 300 nM labeled fibrinogen was incubated as a final concentration with platelets suspension for 30 minutes, in dark, at room temperature. Fresh platelets were used.
Platelets expose PS when activated and undergo shape change. They will stain positive for AnnexinV (a marker of PS exposure) and will move up on the SSC, FSC as a result of the shape change. For this assay, AnnexinV-FITC from BDBiosciences was used, as recommended by the manufacturer with the specification that the reaction volumes were decreased. Incubation was done in dark, at room temperature for 30 minutes, after activation for 10 minutes of platelets with agonist (like 1 μg/ml TRAP, 100 nM PMA or 20 μM ADP as final concentrations).
Cell preparation and pictures were done at the Microscopy Core Facility Cleveland Clinic. Cells were grown for 4 days with DMAT 10 μM and then collected by differential centrifugation. […]
In general terms: Flow cytometry measures light scatter and fluorescence of single cells or particles in a stream.

In assay [3] the test system is MEG-01 cells. Put plainly: Viability (proliferation) assay, Trypan blue exclusion. The following applies: for proliferation rate / cell number of MEG-01 cells: 4 days of treatment.
Excerpt: In order to check the effect of CK2 inhibitors, the treatments length went up to 4, 5 days without splitting.
Cells were counted using a Neubauer hemacytometer. Trypan blue dye was used according to the manufacturer (Sigma-Aldrich, cat. # T8154).
Cell number (as cells/ml) was estimated using the formula [(total count/0.1)/total surface area counted]*(dilution factor), where 0.1 is the chamber depth, considering the appropriate area counted, half dilution for Trypan blue was considered in calculations. Countings were done as quadruplicates every 24 hours.
Quadruplicates values were used for each sample. Experiments were repeated at least 4 times, in order to see if the trend is correct and reproducible.
The mark [4] stands for this setting: platelets from 10 μM treatment, agonist TRAP.
Where [5] appears, read: 50 μM, fourth and fifth days (TBB p<0.01, DMAT p<0.005).

With `CN(C)c1nc2c(Br)c(Br)c(Br)c(Br)c2[nH]1` [DMAT, 2-dimethylamino-4,5,6,7-tetrabromo-1H-benzimidazole], in the assay with MEG-01 cells [1] (10 μM, 3 to 4 days), the “cell surface phenotype by SEM” value is “Pseudopodia and proplatelets formation, as well as blebbing can be observed”. Further, the “maturation and proplatelet formation” value in the assay with MEG-01 cells [1] (10 μM, as early as from the second day, in suspension and on fibronectin) is “induced MEG-01 cells to mature and form proplatelets extensions”. Further, the thrombocytopoiesis result in the assay with MEG-01 cells [1] is on record as “induced thrombocytopoiesis”. Further, in assay [2] (agonists: human thrombin, TRAP, ADP, PMA), the platelet shape change result is listed as “capable of undergoing shape change in response to agonists”. In assay [2] (platelets from 10 μM treatment, activated with 0.5 U/ml thrombin), the “clot formation by platelets” value was “form a fibrin clot”. For the same compound, in assay [2] (setting [4]), the “P-Selectin exposure of activated platelets” value is reported as “expose P-Selectin”, the “PAC-1 staining of activated platelets” value is “stain positive for PAC-1” and the “fibrinogen binding of activated platelets” value is listed as “bind fibrinogen”. For the same compound, the “function of platelets obtained in culture” value in assay [2] is reported as “functional”. Besides, the “proliferation (viability) versus Control untreated (DMSO)” value in the assay on MEG-01 cells [3] (25 μM, fourth and fifth days, p<0.01) is reported as “very significant statistical differences”. The “proliferation rate / cell number of MEG-01 cells” value in the assay with MEG-01 cells [3] (50 μM) was “maintained a steady number of cells for the 4 days of treatment and induced extremely significant reduction in the proliferation rate”. The “proliferation (viability) versus Control untreated (DMSO)” value with MEG-01 cells [3] (setting [5]) is recorded as “very significant statistical differences”.
For `Brc1c(Br)c(Br)c2[nH]nnc2c1Br` [TBB, 4,5,6,7-tetrabromobenzotriazole], the thrombocytopoiesis entry in the assay on MEG-01 cells [1] is “induced thrombocytopoiesis”. Also, in assay [2], the “function of platelets obtained in culture” value is reported as “functional”. The “proliferation (viability) versus Control untreated (DMSO)” value with MEG-01 cells [3] (setting [5]) is “very significant statistical differences”; with MEG-01 cells [3] (100 μM, fourth and fifth days, p<0.005), “very significant statistical differences”. Also, in the assay with MEG-01 cells [3] (100 μM), the “proliferation rate / cell number of MEG-01 cells” value was “maintained a steady number of cells for the 4 days of treatment and induced extremely significant reduction in the proliferation rate”. Besides, the “concentration at which the inhibitor had effect” value in the assay on MEG-01 cells [3] (proliferation arrest and induced apoptosis, TBB concentration required for the same effect as DMAT) worked out at 50 µM.
